We go through 16 molecules from patent US20250145665A1, “MACROCYCLIC PEPTIDES USEFUL AS MODULATORS OF TNF ALPHA” (Bristol-Myers Squibb Company, priority 2023, published 2025).

Positions of bridges follow the written chain, without caps; N, C: chain ends. Non-standard residues stand in square brackets, D forms with d. Residues, ends and D or L forms follow the SMILES beside them. Bip(4'-COOH) = N[C@@H](Cc1ccc(-c2ccc(C(=O)O)cc2)cc1)C(=O)O; Bip(4'-NHAc) = CC(=O)Nc1ccc(-c2ccc(C[C@H](N)C(=O)O)cc2)cc1; Ala(morpholin-4-yl) = N[C@@H](CN1CCOCC1)C(=O)O; Bip = N[C@@H](Cc1ccc(-c2ccccc2)cc1)C(=O)O; Phe(4-NH2) = Nc1ccc(C[C@H](N)C(=O)O)cc1; 3Pal = N[C@@H](Cc1cccnc1)C(=O)O; Sar = CNCC(=O)O

In this experiment the target is TNFα (Homo sapiens, UniProt P01375). In words: TNF-Induced HEK-Blue Assay. The experiment is classed as cell-based. The note with it: HEK-Blue-CD40L cells, NF-kB-driven secreted alkaline phosphatase reporter; TNFα 0.5 ng/ml; 18 h; read-out: TNF induced HEK-Blue assay IC50 value.
TNFα, sequence (P01375 77-233 limits assumed): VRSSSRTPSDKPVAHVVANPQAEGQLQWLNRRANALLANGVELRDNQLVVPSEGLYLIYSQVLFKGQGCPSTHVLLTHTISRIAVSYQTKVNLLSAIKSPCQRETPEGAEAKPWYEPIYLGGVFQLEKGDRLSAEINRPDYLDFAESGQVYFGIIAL
For `CC(C)C[C@@H]1NC(=O)[C@H](Cc2ccc(O)cc2)NC(=O)[C@H](C(C)C)NC(=O)[C@@H]2CCCN2C(=O)[C@H](Cc2ccc(N)cc2)NC(=O)[C@H](CCCNC(=N)N)NC(=O)[C@H](CC(=O)O)NC(=O)[C@@H]2CCCN2C(=O)CN(C)C(=O)[C@H](Cc2ccc(-c3ccccc3)cc2)NC(=O)[C@H](Cc2ccc(-c3ccccc3)cc2)NC(=O)[C@H](CN2CCOCC2)NC(=O)CSC[C@@H](C(=O)NCC(N)=O)NC1=O` [Example 113] ({CH2CO}-[Ala(morpholin-4-yl)][Bip][Bip][Sar]PDR[Phe(4-NH2)]PVYLCG-NH2; thioether N-13), the IC50 was in the range of 200 to 2000 nM.

As for `CC(C)C[C@@H]1NC(=O)[C@H](CCCNC(=N)N)NC(=O)[C@H](C(C)C)NC(=O)[C@@H]2CCCN2C(=O)[C@H](Cc2cccnc2)NC(=O)[C@H](CCCNC(=N)N)NC(=O)[C@H](CC(=O)O)NC(=O)[C@H](Cc2ccc(O)cc2)NC(=O)CN(C)C(=O)[C@H](Cc2ccc(-c3ccccc3)cc2)NC(=O)[C@H](Cc2ccc(-c3ccccc3)cc2)NC(=O)[C@H](CN2CCOCC2)NC(=O)CSC[C@@H](C(=O)NCC(N)=O)NC1=O` [Example 114] ({CH2CO}-[Ala(morpholin-4-yl)][Bip][Bip][Sar]YDR[3Pal]PVRLCG-NH2; thioether N-13), the IC50 lay in the range of 200 to 2000 nM.

Take `CC(C)C[C@@H]1NC(=O)[C@H](Cc2ccc(O)cc2)NC(=O)[C@H](C(C)C)NC(=O)[C@@H]2CCCN2C(=O)[C@H](Cc2cccnc2)NC(=O)[C@H](CCCNC(=N)N)NC(=O)[C@H](CC(=O)O)NC(=O)[C@H](Cc2ccc(O)cc2)NC(=O)CN(C)C(=O)[C@H](Cc2ccc(-c3ccccc3)cc2)NC(=O)[C@H](Cc2ccc(-c3ccccc3)cc2)NC(=O)[C@H](CN2CCOCC2)NC(=O)CSC[C@@H](C(=O)NCC(N)=O)NC1=O` [Example 115] ({CH2CO}-[Ala(morpholin-4-yl)][Bip][Bip][Sar]YDR[3Pal]PVYLCG-NH2; thioether N-13): the IC50 lay in the range of 200 to 2000 nM. Turning to `CC(C)C[C@@H]1NC(=O)[C@H](Cc2ccc(O)cc2)NC(=O)[C@H](C(C)C)NC(=O)[C@@H]2CCCN2C(=O)[C@H](Cc2cccnc2)NC(=O)[C@H](CCCNC(=N)N)NC(=O)[C@H](CC(=O)O)NC(=O)[C@@H]2CCCN2C(=O)CN(C)C(=O)[C@H](Cc2ccc(-c3ccccc3)cc2)NC(=O)[C@H](Cc2ccc(-c3ccccc3)cc2)NC(=O)[C@H](CN2CCOCC2)NC(=O)CSC[C@@H](C(=O)NCC(N)=O)NC1=O` [Example 116] ({CH2CO}-[Ala(morpholin-4-yl)][Bip][Bip][Sar]PDR[3Pal]PVYLCG-NH2; thioether N-13), the IC50 fell in the range of 50 to 200 nM. In the case of `CC(C)C[C@@H]1NC(=O)[C@H](CCCNC(=N)N)NC(=O)[C@H](C(C)C)NC(=O)[C@@H]2CCCN2C(=O)[C@H](Cc2cccnc2)NC(=O)[C@@H](CCCNC(=N)N)NC(=O)[C@H](CC(=O)O)NC(=O)[C@H](Cc2ccc(O)cc2)NC(=O)CN(C)C(=O)[C@H](Cc2ccc(-c3ccccc3)cc2)NC(=O)[C@H](Cc2ccc(-c3ccccc3)cc2)NC(=O)[C@H](CN2CCOCC2)NC(=O)CSC[C@@H](C(=O)NCC(N)=O)NC1=O` [Example 117] ({CH2CO}-[Ala(morpholin-4-yl)][Bip][Bip][Sar]YD[dR][3Pal]PVRLCG-NH2; thioether N-13), the IC50 is 200 to 2000 nM. For `CC(C)C[C@@H]1NC(=O)[C@H](Cc2ccc(O)cc2)NC(=O)[C@H](C(C)C)NC(=O)[C@@H]2CCCN2C(=O)[C@H](Cc2cccnc2)NC(=O)[C@@H](CCCNC(=N)N)NC(=O)[C@H](CC(=O)O)NC(=O)[C@H](Cc2ccc(O)cc2)NC(=O)CN(C)C(=O)[C@H](Cc2ccc(-c3ccccc3)cc2)NC(=O)[C@H](Cc2ccc(-c3ccccc3)cc2)NC(=O)[C@H](CN2CCOCC2)NC(=O)CSC[C@@H](C(=O)NCC(N)=O)NC1=O` [Example 118] ({CH2CO}-[Ala(morpholin-4-yl)][Bip][Bip][Sar]YD[dR][3Pal]PVYLCG-NH2; thioether N-13), the IC50 lay in the range of 200 to 2000 nM. For the molecule `CC(C)C[C@@H]1NC(=O)[C@H](Cc2ccc(O)cc2)NC(=O)[C@H](C(C)C)NC(=O)[C@@H]2CCCN2C(=O)[C@H](Cc2cccnc2)NC(=O)[C@@H](CCCNC(=N)N)NC(=O)[C@H](CC(=O)O)NC(=O)[C@@H]2CCCN2C(=O)CN(C)C(=O)[C@H](Cc2ccc(-c3ccccc3)cc2)NC(=O)[C@H](Cc2ccc(-c3ccccc3)cc2)NC(=O)[C@H](CN2CCOCC2)NC(=O)CSC[C@@H](C(=O)NCC(N)=O)NC1=O` [Example 119] ({CH2CO}-[Ala(morpholin-4-yl)][Bip][Bip][Sar]PD[dR][3Pal]PVYLCG-NH2; thioether N-13), the IC50 fell in the range of 200 to 2000 nM. Turning to `CC(C)C[C@@H]1NC(=O)[C@H](CCCNC(=N)N)NC(=O)[C@H](C(C)C)NC(=O)[C@@H]2CCCN2C(=O)[C@H](C(C)C)NC(=O)[C@H](CCCNC(=N)N)NC(=O)[C@H](CC(=O)O)NC(=O)[C@@H]2CCCN2C(=O)CN(C)C(=O)[C@H](Cc2ccc(-c3ccccc3)cc2)NC(=O)[C@H](Cc2ccc(-c3ccc(C(=O)O)cc3)cc2)NC(=O)[C@H](CN2CCOCC2)NC(=O)CSC[C@@H](C(=O)NCC(N)=O)NC1=O` [Example 120] ({CH2CO}-[Ala(morpholin-4-yl)][Bip(4'-COOH)][Bip][Sar]PDRVPVRLCG-NH2; thioether N-13), the IC50 lay within 50 to 200 nM. `CC(C)C[C@@H]1NC(=O)[C@H](Cc2ccc(O)cc2)NC(=O)[C@H](C(C)C)NC(=O)[C@@H]2CCCN2C(=O)[C@H](C(C)C)NC(=O)[C@H](CCCNC(=N)N)NC(=O)[C@H](CC(=O)O)NC(=O)[C@H](Cc2ccc(O)cc2)NC(=O)CN(C)C(=O)[C@H](Cc2ccc(-c3ccccc3)cc2)NC(=O)[C@H](Cc2ccc(-c3ccc(C(=O)O)cc3)cc2)NC(=O)[C@H](CN2CCOCC2)NC(=O)CSC[C@@H](C(=O)NCC(N)=O)NC1=O` [Example 121] ({CH2CO}-[Ala(morpholin-4-yl)][Bip(4'-COOH)][Bip][Sar]YDRVPVYLCG-NH2; thioether N-13): the IC50 lay in the range of 200 to 2000 nM.

Regarding `CC(C)C[C@@H]1NC(=O)[C@H](CCCNC(=N)N)NC(=O)[C@H](C(C)C)NC(=O)[C@@H]2CCCN2C(=O)[C@H](Cc2ccc(O)cc2)NC(=O)[C@H](CCCNC(=N)N)NC(=O)[C@H](CC(=O)O)NC(=O)[C@@H]2CCCN2C(=O)CN(C)C(=O)[C@H](Cc2ccc(-c3ccccc3)cc2)NC(=O)[C@H](Cc2ccc(-c3ccc(C(=O)O)cc3)cc2)NC(=O)[C@H](CN2CCOCC2)NC(=O)CSC[C@@H](C(=O)NCC(N)=O)NC1=O` [Example 122] ({CH2CO}-[Ala(morpholin-4-yl)][Bip(4'-COOH)][Bip][Sar]PDRYPVRLCG-NH2; thioether N-13), the IC50 lay in the range of 200 to 2000 nM. As for `CC(C)C[C@@H]1NC(=O)[C@H](CCCNC(=N)N)NC(=O)[C@H](C(C)C)NC(=O)[C@@H]2CCCN2C(=O)[C@H](C(C)C)NC(=O)[C@@H](CCCNC(=N)N)NC(=O)[C@H](CC(=O)O)NC(=O)[C@@H]2CCCN2C(=O)CN(C)C(=O)[C@H](Cc2ccc(-c3ccccc3)cc2)NC(=O)[C@H](Cc2ccc(-c3ccc(C(=O)O)cc3)cc2)NC(=O)[C@H](CN2CCOCC2)NC(=O)CSC[C@@H](C(=O)NCC(N)=O)NC1=O` [Example 123] ({CH2CO}-[Ala(morpholin-4-yl)][Bip(4'-COOH)][Bip][Sar]PD[dR]VPVRLCG-NH2; thioether N-13), the IC50 fell in the range of 50 to 200 nM. In the case of `CC(C)C[C@@H]1NC(=O)[C@H](Cc2ccc(O)cc2)NC(=O)[C@H](C(C)C)NC(=O)[C@@H]2CCCN2C(=O)[C@H](C(C)C)NC(=O)[C@H](CCCNC(=N)N)NC(=O)[C@H](CC(=O)O)NC(=O)[C@@H]2CCCN2C(=O)CN(C)C(=O)[C@H](Cc2ccc(-c3ccccc3)cc2)NC(=O)[C@H](Cc2ccc(-c3ccc(C(=O)O)cc3)cc2)NC(=O)[C@H](CN2CCOCC2)NC(=O)CSC[C@@H](C(=O)NCC(N)=O)NC1=O` [Example 124] ({CH2CO}-[Ala(morpholin-4-yl)][Bip(4'-COOH)][Bip][Sar]PDRVPVYLCG-NH2; thioether N-13), the IC50 lay in the range of 50 to 200 nM. In the case of `CC(=O)Nc1ccc(-c2ccc(C[C@@H]3NC(=O)[C@H](Cc4ccc(-c5ccccc5)cc4)NC(=O)[C@H](CN4CCOCC4)NC(=O)CSC[C@@H](C(=O)NCC(N)=O)NC(=O)[C@H](CC(C)C)NC(=O)[C@H](Cc4ccc(O)cc4)NC(=O)[C@H](C(C)C)NC(=O)[C@@H]4CCCN4C(=O)[C@H](C(C)C)NC(=O)[C@@H](CCCNC(=N)N)NC(=O)[C@H](CC(=O)O)NC(=O)[C@@H]4CCCN4C(=O)CN(C)C3=O)cc2)cc1` [Example 125] ({CH2CO}-[Ala(morpholin-4-yl)][Bip][Bip(4'-NHAc)][Sar]PD[dR]VPVYLCG-NH2; thioether N-13), the IC50 was less than 50 nM. Turning to `CC(=O)Nc1ccc(-c2ccc(C[C@@H]3NC(=O)[C@H](Cc4ccc(-c5ccccc5)cc4)NC(=O)[C@H](CN4CCOCC4)NC(=O)CSC[C@@H](C(=O)NCC(N)=O)NC(=O)[C@H](CC(C)C)NC(=O)[C@H](CCCNC(=N)N)NC(=O)[C@H](C(C)C)NC(=O)[C@@H]4CCCN4C(=O)[C@H](C(C)C)NC(=O)[C@H](CCCNC(=N)N)NC(=O)[C@H](CC(=O)O)NC(=O)[C@@H]4CCCN4C(=O)CN(C)C3=O)cc2)cc1` [Example 126] ({CH2CO}-[Ala(morpholin-4-yl)][Bip][Bip(4'-NHAc)][Sar]PDRVPVRLCG-NH2; thioether N-13), the IC50 is 50 to 200 nM.

As for `CC(=O)Nc1ccc(-c2ccc(C[C@@H]3NC(=O)[C@H](Cc4ccc(-c5ccccc5)cc4)NC(=O)[C@H](CN4CCOCC4)NC(=O)CSC[C@@H](C(=O)NCC(N)=O)NC(=O)[C@H](CC(C)C)NC(=O)[C@H](CCCNC(=N)N)NC(=O)[C@H](C(C)C)NC(=O)[C@@H]4CCCN4C(=O)[C@H](Cc4ccc(O)cc4)NC(=O)[C@H](CCCNC(=N)N)NC(=O)[C@H](CC(=O)O)NC(=O)[C@@H]4CCCN4C(=O)CN(C)C3=O)cc2)cc1` [Example 127] ({CH2CO}-[Ala(morpholin-4-yl)][Bip][Bip(4'-NHAc)][Sar]PDRYPVRLCG-NH2; thioether N-13), the IC50 lay within 50 to 200 nM. Turning to `CC(=O)Nc1ccc(-c2ccc(C[C@@H]3NC(=O)[C@H](Cc4ccc(-c5ccccc5)cc4)NC(=O)[C@H](CN4CCOCC4)NC(=O)CSC[C@@H](C(=O)NCC(N)=O)NC(=O)[C@H](CC(C)C)NC(=O)[C@H](CCCNC(=N)N)NC(=O)[C@H](C(C)C)NC(=O)[C@@H]4CCCN4C(=O)[C@H](C(C)C)NC(=O)[C@@H](CCCNC(=N)N)NC(=O)[C@H](CC(=O)O)NC(=O)[C@@H]4CCCN4C(=O)CN(C)C3=O)cc2)cc1` [Example 128] ({CH2CO}-[Ala(morpholin-4-yl)][Bip][Bip(4'-NHAc)][Sar]PD[dR]VPVRLCG-NH2; thioether N-13), the IC50 was less than 50 nM.

What is called IC50 is the concentration at which inhibition is half-maximal.
